Measurements taken from the NIST ThermoML archive (doi:10.1016/j.jct.2006.05.008).

Assay: molar heat capacity at constant pressure
Conditions: 101.33 kPa

CCC[n+]1ccn(C)c1.[Br-] [1-methyl-3-propylimidazolium bromide]
Conditions	molar heat capacity at constant pressure [J/K/mol]
244.42 K, Liquid, Small (less than 1 g) adiabatic calorimetry	265
244.52 K, Crystal, Vacuum adiabatic calorimetry	198.49
244.94 K, Crystal, Vacuum adiabatic calorimetry	198.95
245.29 K, Metastable crystal, Small (less than 1 g) adiabatic calorimetry	199.04
245.35 K, Liquid, Small (less than 1 g) adiabatic calorimetry	265.6
245.89 K, Crystal, Vacuum adiabatic calorimetry	199.57
246.52 K, Liquid, Small (less than 1 g) adiabatic calorimetry	265.56
246.54 K, Liquid, Small (less than 1 g) adiabatic calorimetry	266.09
247.02 K, Crystal, Vacuum adiabatic calorimetry	200.86
247.27 K, Crystal, Vacuum adiabatic calorimetry	200.82
247.37 K, Liquid, Small (less than 1 g) adiabatic calorimetry	266.15
247.66 K, Metastable crystal, Small (less than 1 g) adiabatic calorimetry	201.1
248.62 K, Liquid, Small (less than 1 g) adiabatic calorimetry	266.07
248.65 K, Crystal, Vacuum adiabatic calorimetry	202.17
248.84 K, Liquid, Small (less than 1 g) adiabatic calorimetry	267.47
249.1 K, Crystal, Vacuum adiabatic calorimetry	202.81
249.39 K, Liquid, Small (less than 1 g) adiabatic calorimetry	266.73
250.02 K, Crystal, Vacuum adiabatic calorimetry	203.57
250.02 K, Metastable crystal, Small (less than 1 g) adiabatic calorimetry	203.18
250.73 K, Liquid, Small (less than 1 g) adiabatic calorimetry	266.58
251.18 K, Crystal, Vacuum adiabatic calorimetry	204.9
251.4 K, Crystal, Vacuum adiabatic calorimetry	204.98
251.41 K, Liquid, Small (less than 1 g) adiabatic calorimetry	267.3
251.54 K, Crystal, Vacuum adiabatic calorimetry	205.96
252.37 K, Metastable crystal, Small (less than 1 g) adiabatic calorimetry	205.32
252.77 K, Crystal, Vacuum adiabatic calorimetry	206.43
252.83 K, Liquid, Small (less than 1 g) adiabatic calorimetry	267.16
253.26 K, Crystal, Vacuum adiabatic calorimetry	207.11
253.43 K, Liquid, Small (less than 1 g) adiabatic calorimetry	267.81
254.71 K, Metastable crystal, Small (less than 1 g) adiabatic calorimetry	207.8
254.93 K, Liquid, Small (less than 1 g) adiabatic calorimetry	267.63
255.35 K, Crystal, Vacuum adiabatic calorimetry	209.48
255.45 K, Liquid, Small (less than 1 g) adiabatic calorimetry	268.35
257.03 K, Liquid, Small (less than 1 g) adiabatic calorimetry	268.27
257.05 K, Metastable crystal, Small (less than 1 g) adiabatic calorimetry	210.12
257.43 K, Crystal, Vacuum adiabatic calorimetry	211.8
257.47 K, Liquid, Small (less than 1 g) adiabatic calorimetry	268.84
259.14 K, Liquid, Small (less than 1 g) adiabatic calorimetry	268.9
259.38 K, Metastable crystal, Small (less than 1 g) adiabatic calorimetry	212.62
259.49 K, Liquid, Small (less than 1 g) adiabatic calorimetry	269.39
259.52 K, Crystal, Vacuum adiabatic calorimetry	214.55
260.55 K, Crystal, Vacuum adiabatic calorimetry	216.79
261.24 K, Liquid, Small (less than 1 g) adiabatic calorimetry	269.33
261.52 K, Liquid, Small (less than 1 g) adiabatic calorimetry	269.97
261.6 K, Crystal, Vacuum adiabatic calorimetry	217.5
261.65 K, Liquid, Small (less than 1 g) adiabatic calorimetry	270.17
261.69 K, Metastable crystal, Small (less than 1 g) adiabatic calorimetry	215.45
263.34 K, Liquid, Small (less than 1 g) adiabatic calorimetry	269.95
263.54 K, Liquid, Small (less than 1 g) adiabatic calorimetry	270.5
263.69 K, Crystal, Vacuum adiabatic calorimetry	220.52
263.7 K, Liquid, Small (less than 1 g) adiabatic calorimetry	270.42
264 K, Metastable crystal, Small (less than 1 g) adiabatic calorimetry	218.39
265.44 K, Liquid, Small (less than 1 g) adiabatic calorimetry	270.58
265.56 K, Liquid, Small (less than 1 g) adiabatic calorimetry	271.1
265.73 K, Liquid, Small (less than 1 g) adiabatic calorimetry	270.91
265.77 K, Crystal, Vacuum adiabatic calorimetry	223.78
266.29 K, Metastable crystal, Small (less than 1 g) adiabatic calorimetry	221.46
267.55 K, Liquid, Small (less than 1 g) adiabatic calorimetry	271.24
267.58 K, Liquid, Small (less than 1 g) adiabatic calorimetry	271.73
267.75 K, Liquid, Small (less than 1 g) adiabatic calorimetry	271.67
267.85 K, Crystal, Vacuum adiabatic calorimetry	227.51
268.56 K, Metastable crystal, Small (less than 1 g) adiabatic calorimetry	224.85
269.36 K, Crystal, Vacuum adiabatic calorimetry	231.51
269.61 K, Liquid, Small (less than 1 g) adiabatic calorimetry	272.26
269.67 K, Liquid, Small (less than 1 g) adiabatic calorimetry	271.61
269.77 K, Liquid, Small (less than 1 g) adiabatic calorimetry	272.2
269.93 K, Crystal, Vacuum adiabatic calorimetry	231.49
270.71 K, Metastable crystal, Small (less than 1 g) adiabatic calorimetry	224.7
270.82 K, Metastable crystal, Small (less than 1 g) adiabatic calorimetry	229.03
271.87 K, Liquid, Small (less than 1 g) adiabatic calorimetry	272.35
272 K, Crystal, Vacuum adiabatic calorimetry	235.92
272.05 K, Liquid, Small (less than 1 g) adiabatic calorimetry	273.02
273.43 K, Metastable crystal, Small (less than 1 g) adiabatic calorimetry	235.43
273.97 K, Liquid, Small (less than 1 g) adiabatic calorimetry	272.86
274.08 K, Crystal, Vacuum adiabatic calorimetry	241.07
274.59 K, Liquid, Small (less than 1 g) adiabatic calorimetry	273.93
275.18 K, Metastable crystal, Small (less than 1 g) adiabatic calorimetry	235.92
276.07 K, Liquid, Small (less than 1 g) adiabatic calorimetry	273.68
276.15 K, Crystal, Vacuum adiabatic calorimetry	246.77
276.27 K, Metastable crystal, Small (less than 1 g) adiabatic calorimetry	241.56
277.13 K, Liquid, Small (less than 1 g) adiabatic calorimetry	274.62
277.85 K, Crystal, Vacuum adiabatic calorimetry	253.97
278.17 K, Liquid, Small (less than 1 g) adiabatic calorimetry	274.27
278.22 K, Crystal, Vacuum adiabatic calorimetry	253.72
279.07 K, Metastable crystal, Small (less than 1 g) adiabatic calorimetry	249.25
279.67 K, Liquid, Small (less than 1 g) adiabatic calorimetry	275.3
280.27 K, Liquid, Small (less than 1 g) adiabatic calorimetry	274.91
281.68 K, Metastable crystal, Small (less than 1 g) adiabatic calorimetry	255.47
281.81 K, Metastable crystal, Small (less than 1 g) adiabatic calorimetry	258.32
282.22 K, Liquid, Small (less than 1 g) adiabatic calorimetry	276.12
282.37 K, Liquid, Small (less than 1 g) adiabatic calorimetry	275.55
284.47 K, Liquid, Small (less than 1 g) adiabatic calorimetry	276.33
284.5 K, Metastable crystal, Small (less than 1 g) adiabatic calorimetry	269.64
284.76 K, Liquid, Small (less than 1 g) adiabatic calorimetry	277
286.57 K, Liquid, Small (less than 1 g) adiabatic calorimetry	276.88
287.11 K, Metastable crystal, Small (less than 1 g) adiabatic calorimetry	284.18
287.31 K, Liquid, Small (less than 1 g) adiabatic calorimetry	277.78
287.83 K, Metastable crystal, Small (less than 1 g) adiabatic calorimetry	291.75
288.67 K, Liquid, Small (less than 1 g) adiabatic calorimetry	277.6
289.86 K, Liquid, Small (less than 1 g) adiabatic calorimetry	278.56
290.76 K, Liquid, Small (less than 1 g) adiabatic calorimetry	278.25
292.42 K, Liquid, Small (less than 1 g) adiabatic calorimetry	279.52
292.85 K, Liquid, Small (less than 1 g) adiabatic calorimetry	278.99
294.97 K, Liquid, Small (less than 1 g) adiabatic calorimetry	280.39
297.52 K, Liquid, Small (less than 1 g) adiabatic calorimetry	281.17
300.09 K, Liquid, Small (less than 1 g) adiabatic calorimetry	282.13
302.65 K, Liquid, Small (less than 1 g) adiabatic calorimetry	282.97
305.21 K, Liquid, Small (less than 1 g) adiabatic calorimetry	283.79
307.77 K, Liquid, Small (less than 1 g) adiabatic calorimetry	284.73
310.34 K, Liquid, Small (less than 1 g) adiabatic calorimetry	285.68
312.44 K, Liquid, Small (less than 1 g) adiabatic calorimetry	286.13
315.01 K, Liquid, Small (less than 1 g) adiabatic calorimetry	287.07
317.56 K, Liquid, Small (less than 1 g) adiabatic calorimetry	287.97
320.1 K, Liquid, Small (less than 1 g) adiabatic calorimetry	288.9
322.63 K, Liquid, Small (less than 1 g) adiabatic calorimetry	289.74
325.17 K, Liquid, Small (less than 1 g) adiabatic calorimetry	290.68
327.71 K, Liquid, Small (less than 1 g) adiabatic calorimetry	291.56
330.24 K, Liquid, Small (less than 1 g) adiabatic calorimetry	292.55
332.78 K, Liquid, Small (less than 1 g) adiabatic calorimetry	293.41
335.3 K, Liquid, Small (less than 1 g) adiabatic calorimetry	294.48
337.83 K, Liquid, Small (less than 1 g) adiabatic calorimetry	295.38
340.36 K, Liquid, Small (less than 1 g) adiabatic calorimetry	295.97
342.88 K, Liquid, Small (less than 1 g) adiabatic calorimetry	296.86
345.4 K, Liquid, Small (less than 1 g) adiabatic calorimetry	297.86
347.92 K, Liquid, Small (less than 1 g) adiabatic calorimetry	298.8
350.44 K, Liquid, Small (less than 1 g) adiabatic calorimetry	299.62
352.95 K, Liquid, Small (less than 1 g) adiabatic calorimetry	300.4
355.46 K, Liquid, Small (less than 1 g) adiabatic calorimetry	301.37
357.97 K, Liquid, Small (less than 1 g) adiabatic calorimetry	302.27
359.15 K, Liquid, Small (less than 1 g) adiabatic calorimetry	302.7
360.47 K, Liquid, Small (less than 1 g) adiabatic calorimetry	303.23
361.69 K, Liquid, Small (less than 1 g) adiabatic calorimetry	304.73
362.97 K, Liquid, Small (less than 1 g) adiabatic calorimetry	304.73
364.23 K, Liquid, Small (less than 1 g) adiabatic calorimetry	305.78
366.73 K, Liquid, Small (less than 1 g) adiabatic calorimetry	305.51
